According to paper PMC5811539, “Expression, Purification and Characterization of the Human Cannabinoid 1 Receptor” (Scientific Reports, 2018):

Assays:
hΔCB1 = test system: hΔCB1; parameters: method as in unpublished results; details: HEK293 cells; ref unpublished results; cited from earlier work
hΔCB1 receptor = test system: T1, hΔCB1 receptor; assay: Saturation binding assays (filtration and size-exclusion) with cell-free expressed hΔCB1; parameters: species or system human; details: cell-free expressed from pET15hΔCB1his6 and pET26shΔCB1his6, with nanodiscs, no T4 lysozyme
T1 construct: hCB1 receptor with an N-terminal 102 amino acid truncated residues (hΔCB1); host or cells: cell-free expression with nanodiscs
Experimental: The radioactive binding assays were performed with [^3H] CP-55,940 radioligand.

Which “effect of N-terminal 102 amino acid truncation on binding” value (hΔCB1) does the source give for `CCCCCCC(C)(C)c1ccc([C@@H]2C[C@H](O)CC[C@H]2CCCO)c(O)c1` [CP-55,940] here?
The value was “truncation does not affect the binding”.

With `CCCCCCC(C)(C)c1ccc([C@@H]2C[C@H](O)CC[C@H]2CCCO)c(O)c1` [[^3H] CP-55,940] as the compound, how does the specific binding (hΔCB1 receptor) read?
Its specific binding is “did not show any specific binding”.
